Converted amounts (≈) assume the structure as drawn. Where two headings read alike, the source gives them in different places.
Assays:
[1] = test system: Streptococcus viridans; assay: In vitro antibacterial activity against 1108 strains pathogenic bacteria (Table 4); assay type: cell-based; settings: 27 strains
[2] = Chronic toxicity, rat i.p. 90 days
[3] = test system: Pseudomonas sp.; assay: Comparison of MIC and MBC (Tables 5 and 6); assay type: cell-based
Description: (§1) […]. […] […]

[4] = test system: Escherichia coli; assay: Comparison of MIC and MBC (Tables 5 and 6); assay type: cell-based
Description: as §1

[5] = test system: Klebsiella pneumoniae; assay: Comparison of MIC and MBC (Tables 5 and 6); assay type: cell-based
Description: as §1

[6] = test system: S. aureus; assay: Comparison of MIC and MBC (Tables 5 and 6); assay type: cell-based; settings: S. aureus, 31 strains
Description: as §1

[7] = test system: Shigella; assay: Comparison of MIC and MBC (Tables 5 and 6); assay type: cell-based
Description: as §1

[8] = test system: Serratia sp.; assay: In vitro antibacterial activity against 1108 strains pathogenic bacteria (Table 4); assay type: cell-based; settings: 30 strains
[9] = test system: Haemophilus influenzae; assay: as above; assay type: cell-based; settings: 8 strains
[10] = Nephrotoxicity to rat after i.m. administration; settings: gentamicin at 150 MKD and 100 MKD from seventh day
[11] = test system: Enterobacter cloacae; assay: In vitro antibacterial activity against 1108 strains pathogenic bacteria (Table 4); assay type: cell-based; settings: 29 strains
[12] = test system: Enterobacter aerugenes; assay: as above; assay type: cell-based
Description: as §1

[13] = test system: Salmonella typhi; assay: as above; assay type: cell-based; settings: Salmonella enterica
Description: as §1

[14] = test system: Acinetobacter sp.; assay: as above; assay type: cell-based; settings: 27 strains
Description: as §1

[15] = test system: Pseudomonas sp.; assay: as above; assay type: cell-based; settings: 204 strains
Description: as §1

[16] = test system: Escherichia coli; assay: as above; assay type: cell-based
Description: as §1

[17] = test system: Ciltrobacter sp.; assay: as above; assay type: cell-based; settings: 30 strains
Description: as §1

[18] = test system: Proteus mirabilis; assay: as above; assay type: cell-based; settings: 60 strains
Description: as §1

[19] = test system: Klebsiella pneumoniae; assay: as above; assay type: cell-based
Description: as §1

[20] = test system: Staphylococcus epidermidis; assay: as above; assay type: cell-based; settings: 27 strains
[21] = test system: Methicillin resistant S. aureus; assay: as above; assay type: cell-based; settings: Staphylococcus aureus, 53 strains
[22] = test system: Streptococcus faecalis; assay: as above; assay type: cell-based; settings: Enterococcus faecalis, 33 strains
[23] = test system: Streptococcus pyogenes; assay: as above; assay type: cell-based; settings: 27 strains
[24] = test system: Streptococcus pneumoniae; assay: as above; assay type: cell-based; settings: 14 strains
[25] = Acute toxicity, Kunming mice; settings: versus netilmicin and GM
[26] = test system: Staphylococcus arueus; assay: In vitro antibacterial activity against 1108 strains pathogenic bacteria (Table 4); assay type: cell-based; settings: 190 strains
[27] = test system: bacteria infected mice; assay: In vivo therapeutic effect on bacteria infected mice; settings: similar to those in vitro
[28] = test system: Shigella dysenteriae; assay: In vitro antibacterial activity against 1108 strains pathogenic bacteria (Table 4); assay type: cell-based
[29] = guinea pig, in vivo
[30] = Table 6, Pseudomonas sp., 20 strains, read-out: MBC range
[31] = Table 5, 20 strains, read-out: MBC50
[32] = Table 5, 20 strains, read-out: MBC90
[33] = Table 6, 20 strains, unit assumed
[34] = Table 6, 20 strains, read-out: MBC range
[35] = Table 6, 10 strains, read-out: MBC range
[36] = Enterobacter aerugenes, 27 strains
[37] = Table 6, 20 strains, read-out: MBC90

CCNC1CC(N)C(OC2OC(CN)CCC2N)C(O)C1OC1OCC(C)(O)C(NC)C1O (stereo not shown)
MIC50 [1]: 1 µg/mL (≈ 2.09 µM)
MIC90 [1]: 4 µg/mL (≈ 8.38 µM)
MIC ([1]; read-out: MIC range): 0.062 to 4 µg/mL (≈ 0.13 to 8.38 µM)
MIC ([1]; read-out: Mode MIC): 2 µg/mL (≈ 4.19 µM)
chronic toxicity, comparison with MCR [2]: not greater than that of MCR
MIC50 ([3]; Pseudomonas): 1 µg/mL (≈ 2.09 µM)
MIC90 ([3]; Pseudomonas): 4 µg/mL (≈ 8.38 µM)
MBC ([3]; Pseudomonas, read-out: MBC50): 2 µg/mL (≈ 4.19 µM)
MBC ([3]; Pseudomonas, read-out: MBC90): 8 µg/mL (≈ 16.8 µM)
MBC [3, 30]: 0.25 to 16 µg/mL (≈ 0.523 to 33.5 µM)
MBC90 ([3]; Table 6, Pseudomonas sp., 20 strains, unit assumed): 8 µg/mL (≈ 16.8 µM)
MIC50 [4]: 0.125 µg/mL (≈ 0.262 µM)
MBC [4, 31]: 0.25 µg/mL (≈ 0.523 µM)
MBC [4, 32]: 1 µg/mL (≈ 2.09 µM)
MIC90 ([4]; Table 5, 20 strains, read-out: MIC90): 0.5 µg/mL (≈ 1.05 µM)
MBC90 [4, 33]: 1 µg/mL (≈ 2.09 µM)
MBC ([4]; read-out: MBC range): 0.125 to 8 µg/mL (≈ 0.262 to 16.8 µM)
MIC50 [5]: 0.125 µg/mL (≈ 0.262 µM)
MIC90 [5]: 0.125 µg/mL (≈ 0.262 µM)
MBC [5, 31]: 0.25 µg/mL (≈ 0.523 µM)
MBC [5, 32]: 0.5 µg/mL (≈ 1.05 µM)
MBC [5, 34]: 0.062 to 1 µg/mL (≈ 0.13 to 2.09 µM)
MBC90 [5, 33]: 0.5 µg/mL (≈ 1.05 µM)
MBC ([6]; Staphylococcus aureus, Table 5, read-out: MBC50): 0.5 µg/mL (≈ 1.05 µM)
MBC ([6]; Staphylococcus aureus, Table 5, read-out: MBC90): 2 µg/mL (≈ 4.19 µM)
MIC50 ([6]; Staphylococcus aureus, Table 5, read-out: MIC50): 0.062 µg/mL (≈ 0.13 µM)
MIC90 ([6]; Staphylococcus aureus, Table 5, read-out: MIC90): 0.25 µg/mL (≈ 0.523 µM)
MBC ([6]; Staphylococcus aureus, Table 6, read-out: MBC range): 0.062 to 4 µg/mL (≈ 0.13 to 8.38 µM)
MBC90 ([6]; Table 6, unit assumed): 2 µg/mL (≈ 4.19 µM)
MIC50 ([7]; Table 5, 10 strains): 0.062 µg/mL (≈ 0.13 µM)
MBC ([7]; Table 5, 10 strains, read-out: MBC50): 0.5 µg/mL (≈ 1.05 µM)
MBC ([7]; Table 5, 10 strains, read-out: MBC90): 1 µg/mL (≈ 2.09 µM)
MIC90 ([7]; Table 5, 10 strains, read-out: MIC90): 0.125 µg/mL (≈ 0.262 µM)
MBC [7, 35]: 0.125 to 1 µg/mL (≈ 0.262 to 2.09 µM)
MBC90 ([7]; Table 6, 10 strains, unit assumed): 1 µg/mL (≈ 2.09 µM)
MIC50 [8]: 0.5 µg/mL (≈ 1.05 µM)
MIC90 [8]: 32 µg/mL (≈ 67 µM)
MIC range ([8]; in µg/mL (unit assumed)): 0.062-256
MIC ([8]; read-out: Mode MIC): 0.5 µg/mL (≈ 1.05 µM)
MIC50 [9]: 0.031 µg/mL (≈ 0.0649 µM)
MIC90 [9]: 4 µg/mL (≈ 8.38 µM)
MIC ([9]; read-out: MIC range): 0.031 to 4 µg/mL (≈ 0.0649 to 8.38 µM)
MIC ([9]; read-out: Mode MIC): 0.031 µg/mL (≈ 0.0649 µM)
dead animals [10]: no dead
MIC50 [11]: 2 µg/mL (≈ 4.19 µM)
MIC90 [11]: 64 µg/mL (≈ 134 µM)
MIC ([11]; read-out: Mode MIC): 0.25 µg/mL (≈ 0.523 µM)
MIC50 [12, 36]: 0.25 µg/mL (≈ 0.523 µM)
MIC90 [12, 36]: 16 µg/mL (≈ 33.5 µM)
MIC ([12]; Enterobacter aerugenes, 27 strains, read-out: MIC range): 0.062 to 32 µg/mL (≈ 0.13 to 67 µM)
MIC ([12]; Enterobacter, read-out: Mode MIC): 0.125 µg/mL (≈ 0.262 µM)
MIC50 [13]: 0.5 µg/mL (≈ 1.05 µM)
MIC90 [13]: 8 µg/mL (≈ 16.8 µM)
MIC ([13]; read-out: MIC range): 0.062 to 32 µg/mL (≈ 0.13 to 67 µM)
MIC ([13]; read-out: Mode MIC): 0.5 µg/mL (≈ 1.05 µM)
MIC50 [14]: 0.5 µg/mL (≈ 1.05 µM)
MIC90 [14]: 256 µg/mL (≈ 536 µM)
MIC range ([14]; in µg/mL (unit assumed)): 0.125-256
MIC ([14]; read-out: Mode MIC): 0.25 µg/mL (≈ 0.523 µM)
MIC50 [15]: 8 µg/mL (≈ 16.8 µM)
MIC90 [15]: > 256 µg/mL
MIC ([15]; read-out: Mode MIC): 8 µg/mL (≈ 16.8 µM)
MIC50 ([16]; 146 strains): 0.25 µg/mL (≈ 0.523 µM)
MIC90 ([16]; 146 strains): 16 µg/mL (≈ 33.5 µM)
MIC ([16]; 146 strains, read-out: Mode MIC): 0.25 µg/mL (≈ 0.523 µM)
MIC ([16]; read-out: MIC range): 0.125 to 64 µg/mL (≈ 0.262 to 134 µM)
MIC50 [17]: 0.25 µg/mL (≈ 0.523 µM)
MIC90 [17]: 16 µg/mL (≈ 33.5 µM)
MIC range ([17]; in µg/mL (unit assumed)): 0.125-128
MIC ([17]; read-out: Mode MIC): 0.25 µg/mL (≈ 0.523 µM)
MIC50 [18]: 0.5 µg/mL (≈ 1.05 µM)
MIC90 [18]: 2 µg/mL (≈ 4.19 µM)
MIC range ([18]; in µg/mL (unit assumed)): 0.125-128
MIC ([18]; read-out: Mode MIC): 0.5 µg/mL (≈ 1.05 µM)
MIC50 [19]: 0.125 µg/mL (≈ 0.262 µM)
MIC90 ([19]; 115 strains): 8 µg/mL (≈ 16.8 µM)
MIC range ([19]; 115 strains, in µg/mL (unit assumed)): 0.062-128
MIC ([19]; read-out: Mode MIC): 0.125 µg/mL (≈ 0.262 µM)
MIC50 [20]: 0.31 µg/mL (≈ 0.649 µM)
MIC90 [20]: 1 µg/mL (≈ 2.09 µM)
MIC ([20]; read-out: MIC range): 0.031 to 16 µg/mL (≈ 0.0649 to 33.5 µM)
MIC ([20]; read-out: Mode MIC): 0.031 µg/mL (≈ 0.0649 µM)
MIC50 [21]: 8 µg/mL (≈ 16.8 µM)
MIC90 [21]: 32 µg/mL (≈ 67 µM)
MIC ([21]; read-out: MIC range): 0.5 to 128 µg/mL (≈ 1.05 to 268 µM)
MIC ([21]; read-out: Mode MIC): 8 µg/mL (≈ 16.8 µM)
MIC50 [22]: 32 µg/mL (≈ 67 µM)
MIC90 [22]: 256 µg/mL (≈ 536 µM)
MIC ([22]; read-out: MIC range): 0.5 to 256 µg/mL (≈ 1.05 to 536 µM)
MIC ([22]; read-out: Mode MIC): 1 µg/mL (≈ 2.09 µM)
MIC50 [23]: 1 µg/mL (≈ 2.09 µM)
MIC90 [23]: 32 µg/mL (≈ 67 µM)
MIC ([23]; read-out: MIC range): 0.25 to 128 µg/mL (≈ 0.523 to 268 µM)
MIC ([23]; read-out: Mode MIC): 1 µg/mL (≈ 2.09 µM)
MIC50 [24]: 0.25 µg/mL (≈ 0.523 µM)
MIC90 [24]: 4 µg/mL (≈ 8.38 µM)
MIC ([24]; read-out: MIC range): 0.031 to 16 µg/mL (≈ 0.0649 to 33.5 µM)
MIC ([24]; read-out: Mode MIC): 0.031 µg/mL (≈ 0.0649 µM)
acute toxicity, comparison [25]: lower than that of netilmicin obviously and similar to that of GM
MIC50 [26]: 1 µg/mL (≈ 2.09 µM)
MIC90 [26]: 16 µg/mL (≈ 33.5 µM)
MIC range ([26]; in µg/mL (unit assumed)): 0.031-128
MIC ([26]; read-out: Mode MIC): 0.062 µg/mL (≈ 0.13 µM)
inhibitive and germicide activities in vivo [27]: high inhibitive activities and germicide activities in vivo which are similar to those in vitro
MIC50 [28]: 0.25 µg/mL (≈ 0.523 µM)
MIC90 [28]: 0.5 µg/mL (≈ 1.05 µM)
MIC ([28]; read-out: MIC range): 0.125 to 64 µg/mL (≈ 0.262 to 134 µM)
MIC ([28]; read-out: Mode MIC): 0.25 µg/mL (≈ 0.523 µM)

NCC[C@H](O)C(=O)N[C@@H]1C[C@H](N)[C@@H](O[C@H]2O[C@H](CN)[C@@H](O)[C@H](O)[C@H]2O)[C@H](O)[C@H]1O[C@H]1O[C@H](CO)[C@@H](O)[C@H](N)[C@H]1O [Amikacin]
MBC ([3]; Table 6, Pseudomonas sp., 20 strains, read-out: MBC90): 64 µg/mL (≈ 109 µM)
MBC [3, 30]: 1 to 64 µg/mL (≈ 1.71 to 109 µM)
MBC [4, 37]: 2 µg/mL (≈ 3.42 µM)
MBC [4, 34]: 0.25 to 8 µg/mL (≈ 0.427 to 13.7 µM)
MBC [5, 37]: 1 µg/mL (≈ 1.71 µM)
MBC [5, 34]: 0.125 to 2 µg/mL (≈ 0.213 to 3.42 µM)
MBC ([6]; Staphylococcus aureus, Table 6, read-out: MBC90): 32 µg/mL (≈ 54.6 µM)
MBC range ([6]; Table 6, in µg/mL (unit assumed)): 0.125-128
MBC ([7]; Table 6, 10 strains, read-out: MBC90): 0.5 µg/mL (≈ 0.854 µM)
MBC [7, 35]: 0.25 to 1 µg/mL (≈ 0.427 to 1.71 µM)
dead animals [10]: no dead
ABR threshold [29]: increases of ABR threshold were observed
auditory function [29]: nearly all the auditory function of the animals were lost
